Where a name gives a salt, the structure may show the parent alone. Read-outs that look alike come from different tables or passages of the source.
Target: interaction between p53 and MDM2 proteins (recombinant GST-tagged MDM2) (Homo sapiens, UniProt Q00987)
Test: HTRF assay of inhibition of the p53-MDM2 interaction (GST-MDM2 / biotinylated p53 peptide);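 note: FRET read-out from Eu-labelled anti-GST antibody to streptavidin-APC, with 90 nM N-terminally biotinylated p53 peptide and 160 ng/ml GST-MDM2 in Tris-borate saline containing 1 mM DTT, 384-well format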
Type: binding
Protocol: The ability of the compounds to inhibit the interaction between p53 and MDM2 proteins was measured by an HTRF (homogeneous time-resolved fluorescence) assay in which recombinant GST-tagged MDM2 binds to a peptide that resembles the MDM2-interacting region of p53 (Lane et al.). Binding of GST-MDM2 protein and p53-peptide (biotinylated on its N-terminal end) is registered by the FRET (fluorescence resonance energy transfer) between Europium (Eu)-labeled anti-GST antibody and streptavidin-conjugated Allophycocyanin (APC).
Test is performed in black flat-bottom 384-well plates (Costar) in a total volume of 40 uL containing: 90 nM biotinylate peptide, 160 ng/ml GST-MDM2, 20 nM streptavidin-APC (PerkinElmerWallac), 2 nM Eu-labeled anti-GST-antibody (PerkinElmerWallac), 0.02% bovine serum albumin (BSA), 1 mM dithiothreitol (DTT) and 20 mM Tris-borate saline (TBS) buffer as follows: Add 10 uL of GST-MDM2 (640 ng/ml working solution) in reaction buffer to each well. […] Incubate at 37° C. for 1 h.

interaction between p53 and MDM2 proteins (recombinant GST-tagged MDM2), sequence (Q00987 whole entry): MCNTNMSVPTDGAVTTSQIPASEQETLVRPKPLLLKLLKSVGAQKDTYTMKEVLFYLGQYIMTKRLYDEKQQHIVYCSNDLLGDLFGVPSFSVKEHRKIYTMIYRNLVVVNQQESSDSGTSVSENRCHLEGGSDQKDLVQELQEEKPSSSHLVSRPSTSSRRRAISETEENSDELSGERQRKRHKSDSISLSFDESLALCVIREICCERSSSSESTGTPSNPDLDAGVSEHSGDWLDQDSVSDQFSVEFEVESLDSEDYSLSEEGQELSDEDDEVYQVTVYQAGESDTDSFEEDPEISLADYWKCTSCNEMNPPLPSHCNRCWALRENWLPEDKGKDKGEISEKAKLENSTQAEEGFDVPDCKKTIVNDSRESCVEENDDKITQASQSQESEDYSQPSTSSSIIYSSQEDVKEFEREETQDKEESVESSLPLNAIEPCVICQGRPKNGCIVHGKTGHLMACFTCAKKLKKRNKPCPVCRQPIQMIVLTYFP

## COc1cc(C(=O)OCCOC(=O)CNC(=O)OC(C)(C)C)ccc1NC(=O)[C@@H]1N[C@@H](CC(C)(C)C)[C@](C#N)(c2ccc(Cl)cc2F)[C@H]1c1cccc(Cl)c1F [Example 29, 4-{[(2R,3S,4R,5S)-4-(4-Chloro-2-fluoro-phenyl)-3-(3-chloro-2-fluoro-phenyl)-4-cyano-5-(2,2-dimethyl-propyl)-pyrrolidine-2-carbonyl]-amino}-3-methoxy-benzoic acid 2-(2-tert-butoxycarbonylamino-acetoxy)-ethyl ester]
HTRF, 0.02% BSA, 37° C. 1 h
  IC50: 0.0167 µM

## COc1cc(C(=O)OCC(=O)N(C)C)ccc1NC(=O)[C@@H]1N[C@@H](CC(C)(C)C)[C@](C#N)(c2ccc(Cl)cc2F)[C@H]1c1cccc(Cl)c1F [Example 24, 4-{[(2R,3S,4R,5S)-4-(4-Chloro-2-fluoro-phenyl)-3-(3-chloro-2-fluoro-phenyl)-4-cyano-5-(2,2-dimethyl-propyl)-pyrrolidine-2-carbonyl]-amino}-3-methoxy-benzoic acid dimethylcarbamoylmethyl ester, hydrochloride]
HTRF, 0.02% BSA, 37° C. 1 h
  IC50: 0.0139 µM

## 4-{[(2R,3S,4R,5S)-4-(4-Chloro-2-fluoro-phenyl)-3-(3-chloro-2-fluoro-phenyl)-4-cyano-5-(2,2-dimethyl-propyl)-pyrrolidine-2-carbonyl]-amino}-3-methoxy-benzoic acid, dodecaethylene glycol ester [Example 43]
read-out: IC50 (uM, 0.02% BSA), HTRF, 0.02% BSA, 37° C. 1 h
  IC50: 0.0062 µM

## CCN(CC)CCNC(=O)c1ccc(NC(=O)[C@@H]2N[C@@H](CC(C)(C)C)[C@](C#N)(c3ccc(Cl)cc3F)[C@H]2c2cccc(Cl)c2F)c(OC)c1 [Example 23, (2R,3S,4R,5S)-4-(4-Chloro-2-fluoro-phenyl)-3-(3-chloro-2-fluoro-phenyl)-4-cyano-5-(2,2-dimethyl-propyl)-pyrrolidine-2-carboxylic acid [4-(2-diethylamino-ethylcarbamoyl)-2-methoxy-phenyl]-amide, hydrochloride]
HTRF, 0.02% BSA, 37° C. 1 h
  IC50: 0.00934 µM

## COc1cc(C(=O)OCCCC(=O)O)ccc1NC(=O)[C@@H]1N[C@@H](CC(C)(C)C)[C@](C#N)(c2ccc(Cl)cc2F)[C@H]1c1cccc(Cl)c1F [Example 36, 4-{[(2R,3S,4R,5S)-4-(4-Chloro-2-fluoro-phenyl)-3-(3-chloro-2-fluoro-phenyl)-4-cyano-5-(2,2-dimethyl-propyl)-pyrrolidine-2-carbonyl]-amino}-3-methoxy-benzoic acid 3-carboxy-propyl ester]
  IC50: 0.00498 µM

## COCCOCCOCCOC(=O)COC(=O)c1ccc(NC(=O)[C@@H]2N[C@@H](CC(C)(C)C)[C@](C#N)(c3ccc(Cl)cc3F)[C@H]2c2cccc(Cl)c2F)c(OC)c1 [Example 72, 4-{[(2R,3S,4R,5S)-4-(4-Chloro-2-fluoro-phenyl)-3-(3-chloro-2-fluoro-phenyl)-4-cyano-5-(2,2-dimethyl-propyl)-pyrrolidine-2-carbonyl]-amino}-3-methoxy-benzoic acid 2-[2-(2-methoxy-ethoxy)-ethoxy]-ethoxycarbonylmethyl ester]
HTRF, 0.02% BSA, 37° C. 1 h
  IC50: 0.0203 µM

## C=CCOC(=O)[C@H](CCCCNC(=O)OC(C)(C)C)NC(=O)COC(=O)c1ccc(NC(=O)[C@@H]2N[C@@H](CC(C)(C)C)[C@](C#N)(c3ccc(Cl)cc3F)[C@H]2c2cccc(Cl)c2F)c(OC)c1 [Example 78, 4-{[(2R,3S,4R,5S)-4-(4-Chloro-2-fluoro-phenyl)-3-(3-chloro-2-fluoro-phenyl)-4-cyano-5-(2,2-dimethyl-propyl)-pyrrolidine-2-carbonyl]-amino}-3-methoxy-benzoic acid ((S)-1-allyloxycarbonyl-5-tert-butoxycarbonylamino-pentylcarbamoyl)-methyl ester]
HTRF, 0.02% BSA, 37° C. 1 h
  IC50: 0.0166 µM
